The values below are quoted from earlier work in patent US20240360091A1, “GLUN2B-SUBUNIT SELECTIVE ANTAGONISTS OF THE N-METHYL-D-ASPARTATE RECEPTORS WITH ENHANCED POTENCY AT ACIDIC PH” (Emory University, priority 2021, published 2024).

The test system of one series is GluN2B. As to conditions: between pH 6.8 and pH 7.5; cited from earlier work.
The test system of the next series is nonhuman primates. As to conditions: acute administration; cited from earlier work.

Turning to `C[C@@H]([C@@H](O)c1ccc(O)cc1)N1CCC(O)(c2ccccc2)CC1` [traxoprodil], the “pH sensitivity for inhibition of receptors” value in the series with GluN2B is on record as “does not possess a significant pH sensitivity”. Moreover, the “cognitive effects in nonhuman primates” value with nonhuman primates was “produced cognitive impairments in a dose-dependent manner”.
